From US20210244721A1, “SMALL MOLECULE ENTEROVIRUS INHIBITORS AND USES THEREOF” (priority 2020, published 2021)

Tests used:
RD cells = assay: Cytotoxicity, neutral red method, RD cells; details: RD cells, neutral red method
A549 = assay: Cytotoxicity in A549 cells
Method: (§1) The cytotoxicity of each compound was determined using the neutral red cell viability assay. The assay was performed under similar conditions (incubation temperature, time, and media) as the CPE, but excluded viral infection. Data acquisition and analysis (CC50) was performed similarly to the antiviral CPE assay, and all values are from triplicate experiments.

EV-D68 UA/IL/14-18952 = assay: CPE assay, EV-D68 UA/IL/14-18952 in RD cells; details: EV-D68 UA/IL/14-18952, RD cells
[1] = tested on: EV-D68 US/KY/14-18953 virus; assay: CPE assay, EV-D68 US/KY/14-18953 in RD cells; format: cell-based, Enterovirus D68 (EV-D68); details: EV-D68 US/KY/14-18953, RD cells
EV-D68 US/MO/14-18947 = assay: CPE assay, EV-D68 US/MO/14-18947 in RD cells; details: EV-D68 US/MO/14-18947, RD cells
EV-D68 US/MO/14-18949 = assay: CPE assay, EV-D68 US/MO/14-18949 in RD cells; details: EV-D68 US/MO/14-18949, RD cells
HeLa = assay: Cytotoxicity in HeLa cells
Method: as §1

EV-D68 US/IL/14-18956 = assay: CPE assay, EV-D68 US/IL/14-18956 in RD cells; details: EV-D68 US/IL/14-18956, RD cells
EV-A71 Tainan/4643/98 = assay: CPE assay, EV-A71 Tainan in RD cells; format: cell-based; details: Enterovirus A, EVA71; EV-A71 Tainan, RD cells; read-out: EC50
in vitro [2] = details: human
in vitro [3] = details: African green monkey

SMILES | CC50 (RD cells) | CC50 (A549) | SI (CC50/EC50) (EV-D68 UA/IL/14-18952) | SI = selectivity index (CC50/EC50) [1] | SI (CC50/EC50) (EV-D68 US/MO/14-18947) | EC50 (EV-D68 US/MO/14-18947; Enterovirus D, EVD68, RD) | SI (CC50/EC50) (EV-D68 US/MO/14-18949) | CC50 (HeLa) | SI (CC50/EC50) (EV-D68 US/IL/14-18956) | EC50 (EV-A71 Tainan/4643/98) | CC50 at 3 days (in vitro [2]) | CC50 at 3 days (in vitro [3])
O=C(NCCN1CCCC1)c1cc(-c2cccs2)nc2ccccc12 [drawing 130] | 40 µM | 83.2 µM | 571.4 | 666.7 | 666.7 | 0.06 µM | 800 | 41.7 µM | 800 |  |  | 
Cc1ccc2c(c1)c1c3n2CCNC3CCC1 (stereo not drawn) [drawing 197] |  |  |  |  |  |  |  |  |  | > 20 µM | 19 µM | 40.5 µM
